Source: patent US20230414826A1, “FIBRIN HYDROGELS” (Mayo Foundation for Medical Education and Research, priority 2020, published 2023)
Converted amounts (≈) assume the structure as drawn.

Legend:
[1] = target: T1, fibrin gels (10 mg/mL fibrinogen, 1 U/mL thrombin) (Homo sapiens, UniProt P02671+P02675+P02679); test: Rheometry gelation time, lower fibrinogen concentration fibrin gels; assay type: biochemical; conditions: n=3
T1 construct: purchased Ethicon (Evicel)
T1 sequence (P02671 20-644 isoform P02671-2 limits assumed): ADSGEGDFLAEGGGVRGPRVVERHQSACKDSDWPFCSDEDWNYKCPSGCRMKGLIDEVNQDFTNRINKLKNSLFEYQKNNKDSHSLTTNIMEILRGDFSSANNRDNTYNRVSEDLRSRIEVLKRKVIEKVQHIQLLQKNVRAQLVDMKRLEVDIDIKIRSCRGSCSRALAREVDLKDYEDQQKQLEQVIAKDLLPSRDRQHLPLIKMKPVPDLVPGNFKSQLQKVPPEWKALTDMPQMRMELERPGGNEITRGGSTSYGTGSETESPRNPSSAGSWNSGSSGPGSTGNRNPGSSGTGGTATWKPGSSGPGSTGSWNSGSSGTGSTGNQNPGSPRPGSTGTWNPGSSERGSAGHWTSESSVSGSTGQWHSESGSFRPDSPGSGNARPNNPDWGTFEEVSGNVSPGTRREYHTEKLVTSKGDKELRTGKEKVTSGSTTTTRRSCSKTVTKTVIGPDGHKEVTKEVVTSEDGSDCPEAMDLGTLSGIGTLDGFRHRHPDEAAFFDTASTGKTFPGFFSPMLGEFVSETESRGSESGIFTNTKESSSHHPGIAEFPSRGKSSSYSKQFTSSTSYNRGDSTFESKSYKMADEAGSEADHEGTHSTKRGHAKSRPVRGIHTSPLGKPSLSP
T1 sequence (P02675 45-491 limits assumed): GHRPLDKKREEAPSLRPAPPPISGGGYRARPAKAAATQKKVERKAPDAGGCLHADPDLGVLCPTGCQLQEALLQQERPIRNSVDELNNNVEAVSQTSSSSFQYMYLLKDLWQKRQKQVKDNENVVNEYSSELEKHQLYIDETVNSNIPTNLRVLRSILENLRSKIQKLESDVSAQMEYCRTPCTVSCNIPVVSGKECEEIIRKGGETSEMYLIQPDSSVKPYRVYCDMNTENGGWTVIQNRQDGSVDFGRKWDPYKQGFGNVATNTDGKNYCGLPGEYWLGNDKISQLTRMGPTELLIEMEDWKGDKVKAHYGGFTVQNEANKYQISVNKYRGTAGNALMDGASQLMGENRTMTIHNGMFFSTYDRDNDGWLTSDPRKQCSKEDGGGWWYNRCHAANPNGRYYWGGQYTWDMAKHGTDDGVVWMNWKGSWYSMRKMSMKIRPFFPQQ
T1 sequence (P02679 27-437 isoform P02679-2 limits assumed): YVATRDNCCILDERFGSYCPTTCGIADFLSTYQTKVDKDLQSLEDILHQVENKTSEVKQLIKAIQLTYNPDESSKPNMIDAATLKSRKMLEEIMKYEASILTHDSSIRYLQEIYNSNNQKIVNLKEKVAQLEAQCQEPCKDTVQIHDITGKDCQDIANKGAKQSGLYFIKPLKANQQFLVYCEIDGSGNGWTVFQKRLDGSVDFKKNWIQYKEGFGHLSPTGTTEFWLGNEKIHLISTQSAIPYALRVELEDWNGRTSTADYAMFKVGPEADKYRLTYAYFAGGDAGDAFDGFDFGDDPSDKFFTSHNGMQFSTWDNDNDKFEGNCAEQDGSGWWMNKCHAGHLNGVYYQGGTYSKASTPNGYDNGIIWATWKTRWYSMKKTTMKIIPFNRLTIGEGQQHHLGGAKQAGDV
Description: The viscoelastic mechanical properties of fibrin gels were characterized using oscillatory shear rheology on a Discovery Hybrid Rheometer 2 (TA Instruments; New Castle, DE) with a 20 mm cone-and-plate geometry at a 1° angle and a 20 mm stage. Inertia, friction, and rotational mapping calibrations were performed prior to each experiment. A Peltier temperature-controlled stage maintained 37° C. and a solvent trap was used to control evaporation during experiments lasting longer than 20 minutes. Gels were prepared by mixing specified concentrations of fibrinogen, dye, and thrombin on the stage. Immediately after combining, the geometry head was lowered to 500 μm (˜1-3 seconds) before beginning the first experiment. Gelation kinetics were monitored in time sweeps at 1% strain and 10 rad/s angular frequency. Strain sweeps were measured from 0.01-1000% strain at 1 Hz frequency. A frequency sweeps measured from 0.01-3 Hz at 1% strain was used to confirmed fibrin independence of frequency.
Rheometry was performed for samples with no dye (PBS alone), TB, EB, and PEG. Stock fibrinogen (Evicel) was used as is or diluted with PBS. Thrombin was diluted in PBS, with or without the various dyes. To determine the gelation time, a final mixture concentration of 10 mg/mL fibrinogen, 1 U/mL thrombin, and 0.01% w/v dye concentration was used. A time sweep was performed up to 20 minutes, after which some minor effects of evaporation in non-gelled samples introduced noise and could not reliably detect the storage modulus (g′). The gelation time was defined as the point at which the g′ exceeded the g″ (viscous modulus) and continued to increase over time.
Rheometry was used to confirm findings obtained using the coagulation analyzer and test conditions at higher fibrinogen concentrations used in high mechanical strength scaffolds. While clotting time and gelation time are similar properties, the terms are utilized discretely due to the differences in the respective assays. However, in controls for gels at higher fibrinogen concentrations, thrombin concentrations were decrease by orders of magnitude to assess initial gel time based on the sensitivity of the rheometer. In order to consistently detect a gelation time, when the g′ value (shear modulus) becomes greater than the g″ value (viscous modulus), conditions were set to […] fibrinogen and 1 U/mL thrombin final concentration using tissue glue for all samples. Sample conditions tested using rheometry included use of PBS (control), TB, EB, or PEG solution to dilute the thrombin so that the final gel concentration of the dye was 0.01% w/v. […]
Initially, g′ and g″ values were on the same scale (<2 Pa). […] Due to this, the gelation time was calculated as when the g′ values exceeded the g″ value and continued to grow over time (arrow, FIG. 5A). […]

[2] = Solubility point in citrate buffer; assay type: physicochemical; conditions: aqueous buffer; 1× citrate buffer (20 mM sodium citrate, 100 mM sodium chloride pH 7.4)

| Structure (SMILES) | gelation time (g′ exceeds g″) ([1]; 0.005% w/v dye) [s] | gelation time (g′ exceeds g″) ([1]; 0.01% w/v dye) [s] | gelation time (g′ exceeds g″) ([1]; 0.12% w/v dye) [s] | solubility [2] [mM] |
| --- | --- | --- | --- | --- |
| Cc1cc(-c2ccc(/N=N/c3c(S(=O)(=O)O)cc4cc(S(=O)(=O)O)cc(N)c4c3O)c(C)c2)ccc1/N=N/c1c(S(=O)(=O)O)cc2cc(S(=O)(=O)O)cc(N)c2c1O [TB, Trypan Blue] | 106.4 ± 22.5 | 168.7 ± 19.9 | 206.7 ± 31.3 | 4.58 (≈ 4000 µg/mL) |
| Cc1cc(-c2ccc(/N=N/c3ccc4c(S(=O)(=O)O)cc(S(=O)(=O)O)c(N)c4c3O)c(C)c2)ccc1/N=N/c1ccc2c(S(=O)(=O)O)cc(S(=O)(=O)O)c(N)c2c1O [EB, Evans Blue] | – | 232.1 ± 19.3 | – | – |
